# In article PMC11396129, “Oxindole–benzothiazole hybrids as CDK2 inhibitors and anticancer agents: design, synthesis and biological evaluation” (BMC Chemistry, 2024):
# Tests used:
# CCRF-CEM = experiment: NCI 60 panel growth inhibition (SRB), leukemia; format: cell-based, human; conditions: 10 μM
# Method in brief: (§1)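 Compound stocks in DMSO (400× final top concentration) are diluted to 2× in gentamicin-containing medium, then serially to five levels. Cells, seeded 5000–40,000/well, receive drug 24 h after plating; adherent lines end with cold TCA fixation.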
# HL-60(TB) = experiment: NCI 60 panel growth inhibition (SRB), leukemia; format: cell-based, human; conditions: HL-60(TB), 10 μM
# Method in brief: as §1
# K-562 = experiment: NCI 60 panel growth inhibition (SRB), leukemia; format: cell-based, human; conditions: K-562, 10 μM
# Method in brief: as §1
# MOLT-4 = experiment: NCI 60 panel growth inhibition (SRB), leukemia; format: cell-based, human; conditions: MOLT-4, 10 μM
# Method in brief: as §1
# RPMI-8226 = experiment: NCI 60 panel growth inhibition (SRB), leukemia; format: cell-based, human; conditions: RPMI-8226, 10 μM
# Method in brief: as §1
# SR = experiment: NCI 60 panel growth inhibition (SRB), leukemia; format: cell-based, human; conditions: 10 μM
# Method in brief: as §1
# A549/ATCC = experiment: NCI 60 panel growth inhibition (SRB), non-small cell lung cancer; format: cell-based, human; conditions: 10 μM
# Method in brief: as §1
# EKVX = experiment: as above; format: cell-based, human; conditions: 10 μM
# Method in brief: as §1
# HOP-62 = experiment: as above; format: cell-based, human; conditions: HOP-62, 10 μM
# Method in brief: as §1
# HOP-92 = experiment: as above; format: cell-based, human; conditions: HOP-92, 10 μM
# Method in brief: as §1
# NCI-H226 = experiment: as above; format: cell-based, human; conditions: NCI-H226, 10 μM
# Method in brief: as §1
# NCI-H23 = experiment: as above; format: cell-based, human; conditions: NCI-H23, 10 μM
# Method in brief: as §1
# NCI-H322M = experiment: as above; format: cell-based, human; conditions: 10 μM
# Method in brief: as §1
# NCI-H460 = experiment: as above; format: cell-based, human; conditions: NCI-H460, 10 μM
# Method in brief: as §1
# NCI-H522 = experiment: as above; format: cell-based, human; conditions: NCI-H522, 10 μM
# Method in brief: as §1
# COLO 205 = experiment: NCI 60 panel growth inhibition (SRB), colon cancer; format: cell-based, human; conditions: COLO 205, 10 μM
# Method in brief: as §1
# HCC-2998 = experiment: NCI 60 panel growth inhibition (SRB), colon cancer; format: cell-based, human; conditions: HCC-2998, 10 μM
# Method in brief: as §1
# HCT-116 = experiment: NCI 60 panel growth inhibition (SRB), colon cancer; format: cell-based, human; conditions: HCT-116, 10 μM
# Method in brief: as §1
# HCT-15 = experiment: NCI 60 panel growth inhibition (SRB), colon cancer; format: cell-based, human; conditions: HCT-15, 10 μM
# Method in brief: as §1
# KM12 = experiment: NCI 60 panel growth inhibition (SRB), colon cancer; format: cell-based, human; conditions: KM12, 10 μM
# Method in brief: as §1
# SW-620 = experiment: NCI 60 panel growth inhibition (SRB), colon cancer; format: cell-based, human; conditions: SW-620, 10 μM
# Method in brief: as §1
# SF-268 = experiment: NCI 60 panel growth inhibition (SRB), CNS cancer; format: cell-based, human; conditions: SF-268, 10 μM
# Method in brief: as §1
# SF-295 = experiment: NCI 60 panel growth inhibition (SRB), CNS cancer; format: cell-based, human; conditions: SF-295, 10 μM
# Method in brief: as §1
# SF-539 = experiment: NCI 60 panel growth inhibition (SRB), CNS cancer; format: cell-based, human; conditions: SF-539, 10 μM
# Method in brief: as §1
# SNB-19 = experiment: NCI 60 panel growth inhibition (SRB), CNS cancer; format: cell-based, human; conditions: SNB-19, 10 μM
# Method in brief: as §1
# SNB-75 = experiment: NCI 60 panel growth inhibition (SRB), CNS cancer; format: cell-based, human; conditions: SNB-75, 10 μM
# Method in brief: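 Two-stage NCI process: single-dose screen, then five-concentration testing of selected compounds. Growth relative to time-zero and untreated controls was derived from SRB absorbance, and TGI from the concentration giving Ti = Tz.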
# U251 = experiment: NCI 60 panel growth inhibition (SRB), CNS cancer; format: cell-based, human; conditions: U251, 10 μM
# Method in brief: as §1
# LOX IMVI = experiment: NCI 60 panel growth inhibition (SRB), melanoma; format: cell-based, human; conditions: 10 μM
# Method in brief: as §1
# M14 = experiment: NCI 60 panel growth inhibition (SRB), melanoma; format: cell-based, human; conditions: M14, 10 μM
# Method in brief: as §1
# MALME-3M = experiment: NCI 60 panel growth inhibition (SRB), melanoma; format: cell-based, human; conditions: 10 μM
# Method in brief: as §1
# SK-MEL-28 = experiment: NCI 60 panel growth inhibition (SRB), melanoma; format: cell-based, human; conditions: SK-MEL-28, 10 μM
# Method in brief: as §1
# SK-MEL-5 = experiment: NCI 60 panel growth inhibition (SRB), melanoma; format: cell-based, human; conditions: SK-MEL-5, 10 μM
# Method in brief: as §1
# UACC-257 = experiment: NCI 60 panel growth inhibition (SRB), melanoma; format: cell-based, human; conditions: UACC-257, 10 μM
# Method in brief: as §1
# UACC-62 = experiment: NCI 60 panel growth inhibition (SRB), melanoma; format: cell-based, human; conditions: UACC-62, 10 μM
# Method in brief: as §1
SMILES,GI% (CCRF-CEM) [%],GI% (HL-60(TB)),GI% (K-562),GI% (MOLT-4) [%],GI% (RPMI-8226) [%],GI% (SR),GI% (A549/ATCC) [%],GI% (EKVX) [%],GI% (HOP-62),GI% (HOP-92) [%],GI% (NCI-H226) [%],GI% (NCI-H23) [%],GI% (NCI-H322M),GI% (NCI-H460),GI% (NCI-H522),GI% (COLO 205),GI% (HCC-2998),GI% (HCT-116),GI% (HCT-15) [%],GI% (KM12) [%],also measured
"COc1cccc(-c2nc3ccccc3s2)c1OCC(=O)NN=C1C(=O)Nc2ccc(C)cc21 [Compound 9h, 2-(2-(Benzo[d]thiazol-2-yl)-6-methoxyphenoxy)-N′-(5-methyl-2-oxoindolin-3-ylidene)acetohydrazide]",47.56,– (GI% < 5%),26.17%,43.65,54.14,– (GI% < 5%),24.44,27.92,– (GI% < 5%),23.13,26.01,13.40,6.24%,– (GI% < 5%),– (GI% < 5%),7.03%,– (GI% < 5%),22.91%,5.56,8.90,GI% (SW-620): – (GI% < 5%); GI% (SF-268): – (GI% < 5%); GI% (SF-295): 19.06%; GI% (SF-539): 9.04%; GI% (SNB-19): 8.33%; GI% (SNB-75): – (GI% < 5%); GI% (U251): 5.89%; GI% (LOX IMVI): – (GI% < 5%); GI% (M14): 9.67%; GI% (MALME-3M): 16.42%; GI% (SK-MEL-28): – (GI% < 5%); GI% (SK-MEL-5): 62.94%; GI% (UACC-257): – (GI% < 5%); GI% (UACC-62): 34.75%; melting point: 244 to 246 °C
"O=C(COc1ccccc1-c1nc2ccccc2s1)NN=C1C(=O)Nc2ccccc21 [Compound 9a, 2-(2-(Benzo[d]thiazol-2-yl)phenoxy)-N′-(2-oxoindolin-3-ylidene)acetohydrazide]",20.22,– (GI% < 5%),– (GI% < 5%),8.23,21.80,– (GI% < 5%),11.63,37.48,– (GI% < 5%),6.37,23.61,6.36,– (GI% < 5%),– (GI% < 5%),– (GI% < 5%),– (GI% < 5%),– (GI% < 5%),– (GI% < 5%),8.99,6.23,GI% (SW-620): – (GI% < 5%); GI% (SF-268): 6.56%; GI% (SF-295): 14.46%; GI% (SF-539): 5.56%; GI% (SNB-19): 6.15%; GI% (SNB-75): – (GI% < 5%); GI% (U251): – (GI% < 5%); GI% (LOX IMVI): – (GI% < 5%); GI% (M14): – (GI% < 5%); GI% (MALME-3M): – (GI% < 5%); GI% (SK-MEL-28): – (GI% < 5%); GI% (SK-MEL-5): 13.43%; GI% (UACC-257): 6.77%; GI% (UACC-62): 13.82%; melting point: 238 to 240 °C
